# According to the SangsterLogP compilation:
# Assay: from Nakagawa, S.; Okajima, N.; Kitahaba, T.; Nishimura, K.; Fujita, T.; Nakajima, M. (1982). Quantitative structure-activity studies of substituted benzylchrysanthemates. I. Correlation between …
row,Compound,logP
1,COc1cccc(COC(C)=O)c1,2.02
2,CC(C)=CC1C(C(=O)OCc2ccccc2)C1(C)C (stereo not drawn),5.49
3,COC(=O)C1C(C=C2CCSC2=O)C1(C)C (stereo not drawn),2.33
4,CC(=O)OCc1coc(Cc2ccccc2)c1,3.24
5,CC(=O)OCc1ccc([N+](=O)[O-])cc1,1.73
6,CC(=O)OCc1ccc(Cl)cc1,2.59
7,COC(=O)C1C(C=C(Cl)Cl)C1(C)C (stereo not drawn),3.63
8,CC(=O)OCc1ccc(C)cc1,2.44
9,COC(=O)[C@@H]1[C@@H](C=C(C)C)C1(C)C,3.76
10,CC(C)=C[C@@H]1[C@@H](C(=O)OCc2ccccc2[N+](=O)[O-])C1(C)C,5.2
11,CC(=O)OCN1C(=O)C2=C(CCCC2)C1=O,1.15
12,CC(C)=C[C@@H]1[C@@H](C(=O)OCc2ccc(C#N)cc2)C1(C)C,4.91
13,C=CCC1=C(C)[C@H](OC(=O)C2C(C=C(C)C)C2(C)C)CC1=O (stereo partly drawn),4.78
